Converted amounts (≈) assume the structure as drawn.
Tested on: yeast Saccharomyces cerevisiae X2180-1B
Assay: not given
Conditions: RTD tea pH 3.4; 15 ppm essential oil component, 1-175 ppm cinnamic acid, 1-250 ppm DMDC; 14 days at 25° C.

Molecule	tubes supporting yeast growth, comparison with control FIG. 1
CCCCC/C=C/C=C/C=O [trans, trans-2,4-Decadienal]	very substantially fewer tubes supporting yeast growth

Same assay, conditions: RTD tea pH 3.4; 25 ppm citral dimethyl acetal together with 35 ppm cumic alcohol, 1-175 ppm cinnamic acid, 1-250 ppm DMDC; 14 days at 25° C.

Molecule	tubes supporting yeast growth, comparison with control FIG. 1
COC(C=C(C)CCC=C(C)C)OC [Citral dimethyl acetal]	very substantially fewer tubes supporting yeast growth
CC(C)c1ccc(CO)cc1 [Cumic alcohol]	very substantially fewer tubes supporting yeast growth

Same assay, conditions: RTD tea pH 3.4; 50 ppm essential oil component, 1-175 ppm cinnamic acid, 1-250 ppm DMDC; 14 days at 25° C.

Molecule	tubes supporting yeast growth, comparison with control FIG. 1
CC(C)CCCC(C)CCO (stereo not drawn) [3,7-Dimethyl-1-octanol]	very substantially fewer tubes supporting yeast growth

Same assay, conditions: RTD tea pH 3.4; 100 ppm essential oil component, 1-175 ppm cinnamic acid, 1-250 ppm DMDC; 14 days at 25° C.

Molecule	tubes supporting yeast growth, comparison with control FIG. 1
CC(C)=CCCC(C)=CC=O [Citral]	very substantially fewer tubes supporting yeast growth
COC(C=C(C)CCC=C(C)C)OC [Citral dimethyl acetal]	very substantially fewer tubes supporting yeast growth
CC(C)c1ccc(CO)cc1 [Cumic alcohol]	very substantially fewer tubes supporting yeast growth
CC(=O)OCc1ccc2c(c1)OCO2 [Piperonyl acetate]	very substantially fewer tubes supporting yeast growth
CC1(C)C2CC=C(CO)C1C2 (stereo not drawn) [Myrtenol]	very substantially fewer tubes supporting yeast growth

Tested on: not listed separately
Assay: Minimum inhibitory concentration (MIC) of antimicrobials / essential oils
Format: cell-based
Conditions: not given
Description: The minimum inhibitory concentration (MIC) is given for each compound.
In each case the respective minimum inhibitory concentration (MIC) and their specific preferred concentration is also given.

Molecule	MIC [µg/mL]
CC(=O)OCc1ccc2c(c1)OCO2 [Piperonyl acetate]	242
CC(C)CC=C(C=O)c1ccccc1 [5-Methyl-2-phenyl-2-hexenal]	162 (≈ 860 µM)

Same assay, conditions: Table I, preferred essential oils; test organism not given

Molecule	MIC (ppm)
CC1CCC(C(C)C)C(O)C1 (stereo not drawn) [Neomenthol]	156
CCCC1CCCC(=O)O1 (stereo not drawn) [δ-Octalactone]	568
CCCCCC1CCC(=O)O1 (stereo not drawn) [γ-Nonanoic lactone]	63
CC(C)c1ccc(CO)cc1 [Cumic alcohol]	450
CC1(C)C2CC=C(CO)C1C2 (stereo not drawn) [Myrtenol]	137
CCCCCCCC1CCC(=O)O1 (stereo not drawn) [γ-Undecalactone]	28
C=C(C)C1CCC(C)C(O)C1 (stereo not drawn) [Dihydrocarveol]	540
C/C(C=O)=C\c1ccccc1 [α-Methyl-trans-cinnamaldehyde]	58.4
Tolualdehyde	240

Same assay, conditions: Table I, preferred essential oils; test organism not given; read-out: MIC (ppm)

Molecule	MIC [µg/mL]
CC(C)=CCCC(C)=CC=O [Citral]	228 (≈ 1500 µM)
COC(C=C(C)CCC=C(C)C)OC [Citral dimethyl acetal]	198 (≈ 998 µM)
CCCCCCCCCCC=O [Undecanal]	34 (≈ 200 µM)
CCCCCCCCCC=O [Decanal]	47 (≈ 301 µM)
CC(C)=CCCC(C)CCO (stereo not drawn) [Citronellol]	125 (≈ 800 µM)
CCCCCCCCO [1-Octanol]	247 (≈ 1900 µM)
CC=CC=CC=O [Sorbic aldehyde (2,4-hexadienal), 2,4-hexadienal]	86 (≈ 895 µM)
COC(=O)c1ccccc1O [Methyl salicylate]	152 (≈ 999 µM)
CCC=C(C)C=O [2-Methyl-2-pentenal]	1270 (≈ 13000 µM)
O=C(OCc1ccccc1)c1ccc(O)cc1 [Benzyl-4-hydroxybenzoate]	68 (≈ 298 µM)
CC/C=C\CC1=C(C)CCC1=O [Jasmone]	246 (≈ 1500 µM)
CC(=O)OCCc1scnc1C [4-Methyl-5-thiazoleethanol acetate]	1110
CCCCCCCCCCO [Decanol]	24 (≈ 152 µM)
CC(C)CCCC(C)CCO (stereo not drawn) [3,7-Dimethyl-1-octanol]	15.8 (≈ 99.8 µM)
CCCCCCCCCCCO [1-Undecanol]	14 (≈ 81.2 µM)
C=C(C)C1CC=C(C)C(=O)C1 (stereo not drawn) [Carvone]	300 (≈ 2000 µM)
CC(=O)OCCC1CCCCC1 [2-Cyclohexylethyl acetate]	102

Molecule	MIC [µg/mL]
CCCCCCCC(=O)O [Octanoic acid (caprylic), Octanoic acid]	115 (≈ 797 µM)
CCCCCCCCC(=O)OC [Methyl nonanoate]	90 (≈ 522 µM)
CCCCCCCCC(=O)O [Nonanoic acid]	63 (≈ 398 µM)
CCOC(=O)CCC1CCCCC1 [Ethyl cyclohexanepropionate]	184 (≈ 998 µM)
CC(=O)C(=O)c1ccccc1 [1-Phenyl-1,2-propanedione]	222 (≈ 1500 µM)
CC1=CCC(O)(C(C)C)CC1 (stereo not drawn) [Terpinen-4-ol]	616 (≈ 3990 µM)
O=C(O)CCCC1CCCCC1 [Cyclohexanebutyric acid]	68 (≈ 399 µM)
O=CC=Cc1ccccc1 [Cinnamaldehyde]	66 (≈ 499 µM)
CCOC(=O)C(C)=O [Ethyl pyruvate]	1390 (≈ 12000 µM)
CCCOC(=O)c1ccccc1 [Propyl benzoate]	66 (≈ 402 µM)
COc1ccccc1C=CC=O [o-Methoxycinnamaldehyde]	130 (≈ 802 µM)
CC(C)(C)C1CCC(=O)CC1 [4-tert-Butylcyclohexanone]	462 (≈ 3000 µM)
CCCCC/C=C/C=C/C=O [trans, trans-2,4-Decadienal]	8 (≈ 52.5 µM)
CC(C)=C1CC[C@@H](C)CC1=O [Pulegone]	152 (≈ 998 µM)
COC(=O)c1ccccc1N [Methyl anthranilate]	310 (≈ 2050 µM)
COc1cc(C=O)ccc1O [Vanillin]	1220 (≈ 7990 µM)

Same assay, conditions: Table II, particularly preferred essential oils; test organism not given

Molecule	MIC (ppm)
CC(C)=CCCC(C)=CC=O [Citral]	228
COC(C=C(C)CCC=C(C)C)OC [Citral dimethyl acetal]	198
CC(C)c1ccc(CO)cc1 [Cumic alcohol]	450
CC(C)CCCC(C)CCO (stereo not drawn) [3,7-Dimethyl-1-octanol]	15.8
CC(=O)OCc1ccc2c(c1)OCO2 [Piperonyl acetate]	242
CC1(C)C2CC=C(CO)C1C2 (stereo not drawn) [Myrtenol]	137
CCOC(=O)C(C)=O [Ethyl pyruvate]	1392
CCCCC/C=C/C=C/C=O [trans, trans-2,4-Decadienal]	8

Tested on: yeast Saccharomyces cerevisiae X2180-1B
Assay: not given
Conditions: synthetic soft drink pH 3.4; 15 ppm essential oil component, 1-175 ppm cinnamic acid, 1-250 ppm DMDC; 14 days at 25° C.

Molecule	tubes supporting yeast growth, comparison with control FIG. 11
CCCCC/C=C/C=C/C=O [trans, trans-2,4-Decadienal]	very substantially fewer tubes supporting yeast growth

Same assay, conditions: synthetic soft drink pH 3.4; 25 ppm citral dimethyl acetal together with 35 ppm cumic alcohol, 1-175 ppm cinnamic acid, 1-250 ppm DMDC; 14 days at 25° C.

Molecule	tubes supporting yeast growth, comparison with control FIG. 11
COC(C=C(C)CCC=C(C)C)OC [Citral dimethyl acetal]	very substantially fewer tubes supporting yeast growth
CC(C)c1ccc(CO)cc1 [Cumic alcohol]	very substantially fewer tubes supporting yeast growth

Same assay, conditions: synthetic soft drink pH 3.4; 50 ppm essential oil component, 1-175 ppm cinnamic acid, 1-250 ppm DMDC; 14 days at 25° C.

Molecule	tubes supporting yeast growth, comparison with control FIG. 11
CC(C)CCCC(C)CCO (stereo not drawn) [3,7-Dimethyl-1-octanol]	very substantially fewer tubes supporting yeast growth

Same assay, conditions: synthetic soft drink pH 3.4; 100 ppm essential oil component, 1-175 ppm cinnamic acid, 1-250 ppm DMDC; 14 days at 25° C.

Molecule	tubes supporting yeast growth, comparison with control FIG. 11
CC(C)=CCCC(C)=CC=O [Citral]	very substantially fewer tubes supporting yeast growth
COC(C=C(C)CCC=C(C)C)OC [Citral dimethyl acetal]	very substantially fewer tubes supporting yeast growth
CC(C)c1ccc(CO)cc1 [Cumic alcohol]	very substantially fewer tubes supporting yeast growth
CC(=O)OCc1ccc2c(c1)OCO2 [Piperonyl acetate]	very substantially fewer tubes supporting yeast growth
CC1(C)C2CC=C(CO)C1C2 (stereo not drawn) [Myrtenol]	very substantially fewer tubes supporting yeast growth

Tested on: mould
Assay: not given
Conditions: cited from earlier work

Molecule	efficacy against mould contamination
COC(=O)OC(=O)OC [DMDC, Dimethyl dicarbonate]	inefficient

Tested on: not given
Assay: not given
Conditions: cited from earlier work

Molecule	break down in aqueous environments
COC(=O)OC(=O)OC [DMDC, Dimethyl dicarbonate]	breaks down rapidly

From patent US6562387B2, “Ambient stable beverage and process of making” (priority 2000, dated 2003)
